Where two headings read alike, the source gives them in different places.
Tests used:
[1] = Distribution and clearance of alkylTPP compounds (i.v., feeding tritiated compounds, drinking water); details: mice
[2] = rat, in vivo, po
Experimental: (§1) In order to test the efficacy of PMCol-C2 or Mito-PMCol-C10 in inhibiting growth of prostate tumors in vivo, the PMCol drug formulation was standardized, the route of its administration was determined and determination of the maximum tolerated dose (MTD), when administered orally or by i.v. injection.

DU-145 = experiment: Growth of human prostate tumor cells in culture, PMCol; format: cell-based
Experimental: (§2) Pharmacokinetic (PK) studies of PMCol in mice administered 100 mg/kg PMCol p.o. or 5 mg/kg of PMCol i.v., using Liquid Chromatography-Mass Spectroscopic (LC-MS) analyses.
(§3) Mito-PMCol analogs and PMCol were compared for their relative cytostatic/anti-proliferative and cytotoxic and therapeutic activities in tumor cell systems as measured by clonogenic assays and direct live and dead cell counts are performed in a hemacytometer by trypan blue dye exclusion assay or by DNA fluorescence assays following routine published procedures established in our labs.

LAPC4 = experiment: as above; format: cell-based
Experimental: as §2, §3

LNCaP = experiment: as above; format: cell-based
Experimental: as §2, §3

in vivo [3] = experiment: in vivo
Experimental: as §2

[4] = system: spontaneous TRAMP mouse tumors; experiment: TRansgenic Adenocarcinoma of Mouse Prostate (TRAMP) model; format: in vivo
Experimental: The inhibitory effect of PMCol on prostate tumor growth is tested in the well characterized […] Adenocarcinoma of Mouse Prostate (TRAMP) model. […] Tumor development in PMCol treated animals was delayed by over 8 weeks as compared to the control animals.

in vivo [5] = details: mouse
Experimental: as §1

[6] = format: physicochemical; details: pH 2
LNCaP cells [7] = experiment: DNA (Hoechst 33258) fluorescence cell growth assay, Example 12; format: cell-based, human; details: for cell growth (DNA fluorescence) with logarithmic increase in SAHA concentration: SAHA 0-10 μM
[8] = system: LNCaP cells transfected with the control vector containing scrambled sequence; experiment: ROS production in vector control cells; format: cell-based, human; details: R1881 treatment
LNCaP cells [9] = details: cited from earlier work
siSSAT clone = experiment: ROS production in siSSAT clone; format: cell-based, human; details: R1881 treatment
acetyl histone H4 = experiment: Western blot analysis of acetylated histones
LNCaP cells [10] = experiment: Cellular ROS as ratio DCF fluorescence:DNA fluorescence, Example 12
Text: Fluorescence of oxidized DCF dye is proportional to the total cellular ROS. When DCF fluorescence is normalized with the DNA fluorescence from the same well of the 96-well plate, the ratio DCF fluorescence:DNA fluorescence is proportional to the ROS generated per cell.

[11] = system: recurrent glioblastoma multiforme; details: compared to 4-4.4 months in earlier studies; cited from earlier work
MDA-MB231 = experiment: DNA fluorescence cell growth assay; details: Vitamin E pretreated
[12] = patients, oral SAHA 400 mg qd, cited from earlier work
LNCaP cells [13] = experiment: LC-MS estimation of intracellular SAHA concentration; details: Vitamin E pretreated cells, first 24 hours
Experimental: Ten μL of each extract was used for LC-MS analysis, and the assay was repeated three times.
The solvent gradient and the flow rates were adjusted appropriately. A 5 minute post-run column wash at 10% solvent A, 90% solvent B was maintained at 0.2 ml/min. The column thermostat was maintained at 25° C. for the complete run.
The Mass detector for the mass detection was carried out with Agilent 1100 quadruple moment bench-top mass spectrometer with electrospray ionization in the positive ion mode at 3000 V. For both the single ion MS and scanning MS/MS mode, the desolvation temperature was 340° C. with the drying gas flow rate of 12 l/min at a nebular pressure of 40 psig. […] All data were collected, stored and analyzed using Agilent software for data collection, peak detection and integration.

HT-29 = experiment: DNA fluorescence cell growth assay; details: Vitamin E pretreated
[14] = system: latently HIV infected T-Cells; details: cited from earlier work
all cell lines = experiment: DNA fluorescence cell growth assay, cell lines taken together; format: cell-based, human
[15] = system: advanced non-small-cell lung cancer (NSCLC); details: survival improvements not significant at P=0.05; cited from earlier work
HDAC = system: HDAC
Text: The HDAC activity is expressed as a ratio of HDAC product fluorescence/DNA fluorescence in relative fluorescence unit (FU).

PC-3 cells [16] = experiment: DNA fluorescence cell growth assay; details: SAHA below 10 μM
NCI-H460 = experiment: DNA fluorescence cell growth assay; details: any concentration of SAHA
A549 = experiment: DNA fluorescence cell growth assay; details: any concentration of SAHA
[17] = system: superoxide dismutase (SOD); experiment: SOD assay; format: cell-based, human; details: pretreated with 0.05 nM or 1 nM R1881 prior to 10 μM SAHA
PC-3 cells [18] = experiment: Cellular ROS as ratio DCF fluorescence:DNA fluorescence; details: 20 μM Vitamin E (non-toxic dose)
[19] = agent alone: 20 μM Vitamin E, 1 nM R1881 or 2 μM SAHA

SMILES: CC1(C)CC(OCCCCC[P+](c2ccccc2)(c2ccccc2)c2ccccc2)CC(C)(C)N1[O].[Br-] [Mito-Tempol]
- redistribution once in the bloodstream [1]: rapidly redistribute into organs

SMILES: Cc1c(C)c2c(c(C)c1O)CCC(C)(C)O2 [PMCol, 2,2,5,7,8-pentamethyl-6-chromanol]
- DLT [2]: 2 grams/kilogram/day
- growth of androgen-independent DU-145 cells in culture (DU-145): inhibits the growth
- growth of androgen-dependent LAPC4 cells in culture (LAPC4): inhibits the growth
- growth of androgen-dependent LNCaP cells in culture (LNCaP): inhibits the growth
- oxidized metabolite (in vivo [3]; mouse, in vivo): ring-opened PMQ
- bioavailability in blood serum (in vivo [3]; mouse, in vivo, iv): 0.5 mg/kg
- half-life (in vivo [3]; mouse, in vivo, iv): 2 h
- time after injection within which serum levels went down quickly (in vivo [3]; mouse, in vivo, iv, 5 mg/kg): ≤ 2 h
- bioavailability in blood serum (in vivo [3]; mouse, in vivo, po): 4 mg/kg
- half-life (in vivo [3]; mouse, in vivo, po): 0.5 h
- in vivo metabolism (in vivo [3]; mouse, in vivo, po): oxidized in vivo to the hydroxylated-PMCol
- time after administration within which serum levels went down quickly (in vivo [3]; mouse, in vivo, po, 100 mg/kg): ≤ 15 min
- delay of tumor development as compared to the control animals ([4]; TRAMP model, PMCol treated animals): over 8 weeks
- growth of spontaneous TRAMP mouse tumors ([4]; mouse, in vivo): inhibits the growth
- safety of administration (in vivo [5]): safely administered
- MTD (in vivo [5]; iv): 7.5 mg/kg
- MTD (in vivo [5]; po): 100 mg/kg
- acid stability [6]: lability

SMILES: CC1=C(C)C(=O)C(CCC(C)(C)O)=C(C)C1=O [PMQ, 2-(3-hydroxy-3-methylbutyl)-3,5,6-trimethyl-1,4-benzo-quinone]
- time the metabolite remained in the serum (in vivo [3]; mice, oral PMCol, last time point of PK studies): at least 24 hours
- appearance of the LC-MS peak in serum after oral administration of PMCol (in vivo [3]; mouse, in vivo, po): appears in serum within minutes

SMILES: C[C@]1(O)CC[C@H]2[C@@H]3CCC4=CC(=O)CCC4=C3C=C[C@@]21C [R1881]
- effect on LNCaP cell growth (LNCaP cells [7]; 0.05 nM R1881): growth stimulatory
- effect on LNCaP cell growth (LNCaP cells [7]; 1 nM or above): growth inhibitory effect
- ROS production [8]: marked increase
- cellular ROS (DCF dye oxidation) compared to 1-10 nM (LNCaP cells [9]; R1881 concentrations less than 0.1 nM, Ripple et al. 1997): significantly lower cellular ROS
- cellular ROS (DCFH-DA dye oxidation) compared to 1 nM to 10 nM (LNCaP cells [9]; metribolone concentrations less than 1 nM, Ripple et al 1997): significantly lower cellular ROS
- ROS production (siSSAT clone): no significant effect on ROS production
- acetyl-histone H4 level (acetyl histone H4; [19]): little effect on the acetyl-histone H4 level

SMILES: O=C(CCCCCCC(=O)Nc1ccccc1)NO [SAHA, Suberoylanilide hydroxamic acid]
- cellular ROS (DCF/DNA fluorescence) with increase in SAHA concentration (LNCaP cells [10]; no R1881): ROS increases
- cellular ROS (DCF/DNA fluorescence) with increase in SAHA concentration (LNCaP cells [10]; pretreated with 0.05 nM R1881): negligible effect on total cellular ROS levels
- cellular ROS (DCF/DNA fluorescence) with increase in SAHA concentration (LNCaP cells [10]; pretreated with 2 nM R1881): negligible effect on total cellular ROS levels
- median overall survival [11]: 5.7 months
- SAHA sensitivity compared to Vitamin E untreated cells (MDA-MB231): higher in Vitamin E pretreated cells
- serum SAHA level [12]: ~349 ng/mL
- serum SAHA level ([12]; clinically achievable): ~1.3 µM
- intracellular SAHA level (LNCaP cells [13]): no significant decrease
- cell growth (DNA fluorescence) with logarithmic increase in SAHA concentration (LNCaP cells [7]; no R1881): inhibited almost linearly
- cell growth (DNA fluorescence) (LNCaP cells [7]; normal androgen level (1 nM R1881), even at 10 μM SAHA): little effect on cell growth
- cell growth (DNA fluorescence) with logarithmic increase in SAHA concentration (LNCaP cells [7]; pretreated with 0.05 nM R1881): inhibited almost linearly
- cell growth (DNA fluorescence) (LNCaP cells [7]; pretreated with 2 nM R1881, all SAHA concentrations tested): negligible effect on cell growth
- SAHA sensitivity compared to Vitamin E untreated cells (HT-29): higher in Vitamin E pretreated cells
- effects against latently HIV infected T-Cells [14]: both in vitro and in vivo effects
- nature of the increase in SAHA sensitivity (formalism of Chou and Talalay) (all cell lines; Vitamin E pretreatment followed by SAHA): synergistic
- activity at clinically achievable serum level (~1.3 μM) (all cell lines; cell lines untreated with Vitamin E or another similar anti-oxidant): inactive
- sensitivity to SAHA at a concentration much below the clinically achievable serum level (all cell lines; prostate, breast and colon cancer cells pretreated with anti-oxidants such as Vitamin E): highly sensitive
- response and survival [15]: improved response rates and increased median progression free survival and overall survival
- HDAC activity with increasing concentrations of SAHA (HDAC; R1881 untreated vector control cells, androgen-treated and untreated siSSAT cells): decreases in a similar fashion
- HDAC activity with increasing concentrations of SAHA (HDAC; vector control cells pretreated with 1 nM R1881): increases after an initial decrease
- resistance of PC-3 cells to SAHA (PC-3 cells [16]): intrinsically resistant
- change of SAHA sensitivity after Vitamin E pretreatment (NCI-H460): do not show any appreciable increase in SAHA sensitivity
- change of SAHA sensitivity after Vitamin E pretreatment (A549): do not show any appreciable increase in SAHA sensitivity
- acetyl-histone H4 level (acetyl histone H4; 1 nM R1881 pretreated cells + 2 μM SAHA): marked decrease
- acetyl-histone H4 level (acetyl histone H4; [19]): small, but significant increase
- SOD activity of LNCaP cells [17]: no significant difference in the SOD activity

SMILES: Cc1c(C)c2c(c(C)c1OC(=O)CCC(=O)O)CC[C@@](C)(CCC[C@H](C)CCC[C@H](C)CCCC(C)C)O2 [Vitamin E, αTocopherol succinate]
- ROS levels (LNCaP cells [10]; 20 μM Vitamin E (non-toxic dose), LNCaP treated and untreated with R1881): markedly reduces the ROS levels
- acetyl histone H4 level (acetyl histone H4; Vitamin E + R1881 + SAHA): almost completely restores
- acetyl-histone H4 level (acetyl histone H4; [19]): little effect on the acetyl-histone H4 level
- ROS levels (PC-3 cells [18]): markedly reduces the ROS levels

Source: patent publication US20100297262A1, “[…] ACTIVE COMPOSITIONS COMPRISING OXIDATIVE STRESS MODULATORS (OSM), NEW CHEMICAL […], COMPOSITIONS AND USES” (COLBY PHARMACEUTICAL COMPANY, priority 2009, published 2010)
